From the NIST ThermoML archive (doi:10.1021/je100825b)
± gives the expanded uncertainty stated by the source.

Conditions: Liquid, Drop weight

CCCCCCC [heptane] + O=C=O
interfacial tension [mN/m]
Conditions | 323 K | 353 K
100 kPa | 16.8 ± 0.2 | 13.6 ± 0.2
2100 kPa | – | 10.6 ± 0.2
3100 kPa | 10.1 ± 0.2 | –
4000 kPa | – | 7.8 ± 0.2
4500 kPa | 7.8 ± 0.2 | –
5500 kPa | 5.7 ± 0.1 | –
5600 kPa | – | 6.1 ± 0.2
6900 kPa | – | 4.7 ± 0.1
7900 kPa | 1.5 ± 0.08 | –
8500 kPa | – | 2.9 ± 0.1
9300 kPa | 0.11 ± 0.03 | –
10300 kPa | – | 0.8 ± 0.05
11200 kPa | – | 0.2 ± 0.02

C [methane] + CCCCCCC
298.2 K
Conditions | interfacial tension [mN/m]
100 kPa | 19.8 ± 0.2
2000 kPa | 16.5 ± 0.2
3000 kPa | 15 ± 0.2
4000 kPa | 13.4 ± 0.2
6000 kPa | 10.1 ± 0.2
8000 kPa | 7.9 ± 0.2
15000 kPa | 2.3 ± 0.1

N#N [nitrogen] + CCCCCCC
323.2 K
Conditions | interfacial tension [mN/m]
100 kPa | 17.6 ± 0.2
3400 kPa | 16 ± 0.2
6900 kPa | 13.7 ± 0.2
10400 kPa | 12 ± 0.1
